Several values for one entry are separate records, joined by “and”; a condition that tells them apart may be missing. Equal values may be shown once. Where a name gives a salt, the structure may show the parent alone. Read-outs that look alike come from different tables or passages of the source. Values belong to the molecule of their own block, whether it stands above or below them.
What was measured:
rat CYP51 = target: T1, rat CYP51 (Rattus norvegicus, UniProt Q64654); assay: CYP51 enzymatic assay (LC/MS quantitation of FF-MAS); type: biochemical
T1 construct: purchased Cypex, Inc
T1 sequence (Q64654 1-503): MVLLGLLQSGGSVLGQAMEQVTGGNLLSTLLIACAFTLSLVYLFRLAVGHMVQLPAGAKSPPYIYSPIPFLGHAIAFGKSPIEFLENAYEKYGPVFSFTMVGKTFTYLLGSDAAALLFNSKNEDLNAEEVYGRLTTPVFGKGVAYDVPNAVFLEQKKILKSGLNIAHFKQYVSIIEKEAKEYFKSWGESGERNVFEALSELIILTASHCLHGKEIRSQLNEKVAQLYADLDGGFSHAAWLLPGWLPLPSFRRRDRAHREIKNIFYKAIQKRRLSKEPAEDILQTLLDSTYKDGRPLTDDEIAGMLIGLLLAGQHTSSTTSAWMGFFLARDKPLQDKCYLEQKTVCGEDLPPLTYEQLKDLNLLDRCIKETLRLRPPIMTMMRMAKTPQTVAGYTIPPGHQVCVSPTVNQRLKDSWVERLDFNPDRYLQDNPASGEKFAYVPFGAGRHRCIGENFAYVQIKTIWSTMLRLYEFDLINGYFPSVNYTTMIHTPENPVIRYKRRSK

[1] = system: mouse epiblast stem cell-derived OPCs; assay: In vitro phenotypic screening of OPCs (MBP+ oligodendrocytes at 72 h); type: cell-based
Protocol: Then, 40,000 cells were seeded per well in differentiation medium and allowed to attach for 30 min before addition of drug. […] Sterols were added to cells as an ethanol solution (0.2% final ethanol concentration). […] Cells were incubated under standard conditions (37° C., 5% CO2) for 3 days and fixed with 4% paraformaldehyde (PFA) in phosphate buffered saline (PBS) for 20 min. Fixed plates were washed with PBS (200 μL per well) twice, permeabilized with 0.1% Triton X-100 and blocked with 10% donkey serum (v/v) in PBS for 40 min. […] Nuclei were visualized by DAPI staining (Sigma; 1 μg/ml).

OPCs (OPC-1 derivation) = assay: High-throughput screening of 3,000 bioactive small molecules for MBP+ oligodendrocyte formation; settings: 2 μM, 72 h; for % Oligos: MBP+; for fold-change in % MBP + oligodendrocytes: relative to DMSO controls of the same plate
Text: Plates were imaged on the Operetta High Content Imaging and Analysis system (PerkinElmer) and a set of 6 fields captured from each well resulting in an average of 1200 cells being scored per well. Analysis (PerkinElmer Harmony and Columbus software) began by identifying intact nuclei stained by DAPI; that is, those traced nuclei that were larger than 300 μm^2 in surface area. Each traced nucleus region was then expanded by 50% and cross-referenced with the […] (MBP) stain to identify oligodendrocyte nuclei, and from this the percentage of oligodendrocytes was calculated. In some experiments, the total process length of MBP+ oligodendrocytes was calculated as previously described.
EpiSC-derived OPCs were grown and expanded in poly-ornithine and laminin-coated flasks before harvesting for plating. Cells were dispensed in differentiation media supplemented with Noggin (R&D Systems; 100 ng/ml), Neurotrophin 3 (R&D Systems; 10 ng/ml), cAMP (Sigma; 50 μM), and IGF-1 (R&D Systems; 100 ng/ml)) using a Biotek EL406 Microplate Washer Dispenser (Biotek) equipped with 5 μL dispense cassette (Biotek), into poly-D-lysine/laminin (Sigma, L2020; 4 μg/ml)-coated sterile, 384-well, CellCarrier ultra plates (PerkinElmer), to a final density of 12,500 cells per well and allowed to attach for 45 min before addition of drug. A 3 mM stock of bioactive compound library in dimethylsulphoxide (DMSO) were prepared in an Abgene storage 384-well plate (ThermoFisher Scientific; AB1055). These were added to assay plates using a 50 nL solid pin tool attached to Janus automated workstation (Perkin Elmer), resulting in a final screening concentration of 2 μM. Cells were incubated at 37° C. for 1 hour and then T3 (Sigma; 40 ng/ml) was added to all wells except negative controls, to which FGF (20 ng/ml) was added instead. Negative controls and T3-alone were included in each assay plate. After incubation at 37° C. for 72 h, cells were fixed, washed and stained similar to 96-well OPC assay protocol, although all the washing steps were performed using a Biotek EL406 Microplate Washer Dispenser (Biotek) equipped with a 96-well aspiration manifold. Cells were stained with DAPI (Sigma; 1 μg/ml) and MBP antibody (Abeam, ab7349; 1:100). Plates were imaged on the Operetta High Content Imaging and Analysis system (PerkinElmer) and a set of 4 fields captured from each well resulting in an average of 700 cells being scored per well. Analysis was performed as in High-Content Imaging and Analysis, above. All plates for the primary screen were processed and analyzed simultaneously to minimize variability. Molecules causing more than 20% reduction in nuclear count relative to DMSO control wells were removed from consideration, and hits were called on the basis of largest fold-increase in percentage of MBP+ oligodendrocytes relative to DMSO controls within the same plate.

OPCs = assay: GC/MS-based sterol profiling in OPCs; type: cell-based, mouse; settings: for sterol levels / sterol intermediate accumulation in OPCs: 24 h treatment (siRNA 96 h)
EBP = target: T2, EBP (Mus musculus, UniProt P70245); assay: EBP enzymatic assay (GC/MS); type: biochemical; settings: 10 μM, zymostenol 25 μM
T2 construct: active EBP was obtained from mouse microsomes; from tissue
T2 sequence (P70245 1-230): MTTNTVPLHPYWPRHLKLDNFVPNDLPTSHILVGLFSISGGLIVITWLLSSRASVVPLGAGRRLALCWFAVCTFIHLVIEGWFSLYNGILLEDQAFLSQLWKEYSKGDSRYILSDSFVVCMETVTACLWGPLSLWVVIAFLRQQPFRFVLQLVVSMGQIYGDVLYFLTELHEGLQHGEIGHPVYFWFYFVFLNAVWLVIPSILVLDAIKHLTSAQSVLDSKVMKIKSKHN

T47D cells = settings: 5 days
[2] = listed as Raloxifene hydrochloride, HCl

Molecule: CC(=O)N1CCN(c2ccc(OC[C@@H]3CO[C@](Cn4ccnc4)(c4ccc(Cl)cc4Cl)O3)cc2)CC1 (stereo in doubt) [R-trans-Ketoconazole]
inhibition of mammalian CYP51 in vitro (rat CYP51): strikingly less effective at inhibiting mammalian CYP51

Molecule: CC(=O)N1CCN(c2ccc(OC[C@H]3CO[C@@](Cn4ccnc4)(c4ccc(Cl)cc4Cl)O3)cc2)CC1 (stereo in doubt) [S-trans-Ketoconazole]
inhibition of mammalian CYP51 in vitro (rat CYP51): strikingly less effective at inhibiting mammalian CYP51

Molecule: CC(C)CCC[C@@H](C)[C@H]1CC=C2C3=C(CC[C@@]21C)[C@@]1(C)CCC(O)CC1CC3 (stereo partly drawn) [14-dehydrozymostenol, cholesta-8,14-dien-β-ol]
formation of MBP+ oligodendrocytes from OPCs [1]: enhanced the formation of MBP+ oligodendrocytes

Molecule: Clc1ccccc1C(c1ccccc1)(c1ccccc1)n1ccnc1 [Clotrimazole]
% Oligos (OPCs (OPC-1 derivation)): 34.36% and 27.93% | fold-change in % MBP + oligodendrocytes (OPCs (OPC-1 derivation)): 5.88

cholesterol pathway enzyme inhibited in OPCs (from sterol profile) (OPCs; GC/MS, 24 h): targeted CYP51
Molecule: C[C@]12CC[C@@H]3c4ccc(O)cc4C[C@@H](CCCCCCCCC[S+]([O-])CCCC(F)(F)C(F)(F)F)[C@H]3[C@@H]1CC[C@@H]2O (stereo partly drawn) [Fulvestrant]

Molecule: Cl.O[Si](CCCN1CCCCC1)(c1ccc(F)cc1)C1CCCCC1 (stereo not drawn) [Hexahydro-sila-difenidol hydrochloride, p-fluoro analog]
% Oligos (OPCs (OPC-1 derivation)): 26.76%

Molecule: Cl.Cl.OCCOCCN1CCN(C(c2ccccc2)c2ccc(Cl)cc2)CC1 (stereo not drawn) [Hydroxyzine 2HCl]
cell viability (% relative to DMSO) (OPCs (OPC-1 derivation)): 134.19% | % Oligos (OPCs (OPC-1 derivation)): 40.63% | fold-change in % MBP + oligodendrocytes (OPCs (OPC-1 derivation)): 4.80

Molecule: Clc1ccc(C(Cn2ccnc2)OCc2c(Cl)cccc2Cl)c(Cl)c1 (stereo not drawn) [Isoconazole nitrate]
% Oligos (OPCs (OPC-1 derivation)): 53.25%

Molecule: Cl.Clc1ccc(N2CCN(Cc3c[nH]c4ncccc34)CC2)cc1 [L-745,870 hydrochloride]
% Oligos (OPCs (OPC-1 derivation)): 32.61%

Molecule: O=C(c1ccc(OCCN2CCCCC2)cc1)c1c(-c2ccc(O)cc2)sc2cc(O)ccc12 [Raloxifene HCl]
% Oligos (OPCs (OPC-1 derivation); HCl): 35.01% | % Oligos (OPCs (OPC-1 derivation); [2]): 33.33% | fold-change in % MBP + oligodendrocytes (OPCs (OPC-1 derivation); [2]): 3.77

Molecule: Cc1cc(NC(=O)Nc2ccc(N(C)C)cc2)c2cc(F)cc(F)c2n1 [SB408124]
cell viability (% relative to DMSO) (OPCs (OPC-1 derivation)): 106.19% | % Oligos (OPCs (OPC-1 derivation)): 39.63%

inhibition of EBP enzymatic activity (EBP): clear inhibition
Molecule: COc1ccc(S(=O)(=O)N2CCC(N3CCC(C)CC3)CC2)cc1 [TASIN-1, Tasin-1]
formation of MBP+ oligodendrocytes from OPCs [1]: enhanced formation of MBP+ oligodendrocytes

Molecule: CCN(CC)CCCCCCCCOC(=O)c1cc(OC)c(OC)c(OC)c1.Cl [TMB-8 hydrochloride]
cell viability (% relative to DMSO) (OPCs (OPC-1 derivation)): 139.42% | % Oligos (OPCs (OPC-1 derivation)): 18.47%

Molecule: CCC(C)(C)c1ccc(CC(C)CN2C[C@@H](C)O[C@@H](C)C2)cc1 (stereo partly drawn) [amorolfine, Amorolfine]
formation of MBP+ oligodendrocytes from OPCs [1]: enhanced formation of MBP+ oligodendrocytes

Molecule: CN1[C@@H]2CC[C@H]1C[C@@H](OC(c1ccccc1)c1ccccc1)C2 [benztropine, Benztropine]
inhibition of EBP enzymatic activity (EBP): clear inhibition | sterol levels / sterol intermediate accumulation in OPCs (OPCs; GC/MS): induced accumulation of zymostenol and zymosterol and decreased basal sterol levels

Molecule: C=C(c1ccc(C(=O)O)cc1)c1cc2c(cc1C)C(C)(C)CCC2(C)C [bexarotene, Bexarotene]
sterol levels / sterol intermediate accumulation in OPCs (OPCs; GC/MS): minimal effects on sterol levels

Molecule: CC(C)CCC[C@@H](C)[C@H]1CC[C@H]2[C@@H]3CC=C4C[C@@H](O)CC[C@]4(C)[C@H]3CC[C@]12C [cholesterol, Cholesterol]
formation of MBP+ oligodendrocytes from OPCs [1]: ineffective

Molecule: CN1CCC[C@@H]1CCO[C@](C)(c1ccccc1)c1ccc(Cl)cc1 [clemastine, Clemastine]
sterol levels / sterol intermediate accumulation in OPCs (OPCs; GC/MS): induced accumulation of zymostenol and zymosterol and decreased basal sterol levels

inhibition of mammalian CYP51 in vitro (rat CYP51): did not inhibit mammalian CYP51 in vitro
Molecule: OC(Cn1cncn1)(Cn1cncn1)c1ccc(F)cc1F [fluconazole, Fluconazole]

Molecule: OCCOCCN1CCN(C(c2ccccc2)c2ccc(Cl)cc2)CC1 (stereo not drawn) [hydroxyzine, Hydroxyzine]
inhibition of EBP enzymatic activity (EBP): directly inhibiting EBP enzymatic activity

Molecule: CC(C)=CCC[C@@H](C)[C@H]1CC[C@@]2(C)C3=C(CC[C@]12C)[C@@]1(C)CC[C@H](O)C(C)(C)[C@@H]1CC3 [lanosterol, Lanosterol]
formation of MBP+ oligodendrocytes from OPCs [1]: enhanced formation of MBP+ oligodendrocytes in a dose-responsive fashion

Molecule: N[C@@H](Cc1cc(I)c(Oc2ccc(O)c(I)c2)c(I)c1)C(=O)O [liothyronine, Liothyronine]
sterol levels / sterol intermediate accumulation in OPCs (OPCs; GC/MS): minimal effects on sterol levels

Molecule: OCCOc1ccc(/C(=C(/CCCl)c2ccccc2)c2ccccc2)cc1 [ospemifene, Ospemifene]
formation of MBP+ oligodendrocytes from OPCs [1]: did not enhance differentiation to MBP+ oligodendrocytes | antiestrogen effects on estrogen-dependent growth (T47D cells): comparable antiestrogen effects | cholesterol pathway enzyme inhibited in OPCs (from sterol profile) (OPCs): did not inhibit EBP in OPCs

cholesterol pathway enzyme inhibited in OPCs (from sterol profile) (OPCs; GC/MS, 24 h): inhibited EBP
Molecule: CN(C)CCOc1ccc(/C(=C(/CCCl)c2ccccc2)c2ccccc2)cc1 [toremifene, Toremifene]
formation of MBP+ oligodendrocytes from OPCs [1]: enhanced MBP+ oligodendrocyte generation over a wide dose range | antiestrogen effects on estrogen-dependent growth (T47D cells): comparable antiestrogen effects

Molecule: CC(C)CCC[C@@H](C)[C@H]1CC[C@H]2C3=C(CC[C@]12C)[C@@]1(C)CC[C@H](O)C[C@@H]1CC3 [zymostenol, Zymostenol]
formation of MBP+ oligodendrocytes from OPCs [1]: enhanced the formation of MBP+ oligodendrocytes

Molecule: (±)-Vesamicol
cell viability (% relative to DMSO) (OPCs (OPC-1 derivation)): 112.02% | % Oligos (OPCs (OPC-1 derivation)): 34.23%

Molecule: Ifenprodil Tartrate
cell viability (% relative to DMSO) (OPCs (OPC-1 derivation)): 103.79% | % Oligos (OPCs (OPC-1 derivation)): 41.41% | % Oligos (OPCs (OPC-1 derivation); listed as ifenprodil tartrate): 33.69% | fold-change in % MBP + oligodendrocytes (OPCs (OPC-1 derivation)): 4.89 | fold-change in % MBP + oligodendrocytes (OPCs (OPC-1 derivation); listed as ifenprodil tartrate): 3.61 | cell viability (% relative to DMSO) (OPCs (OPC-1 derivation); listed as ifenprodil tartrate): 106.02%

Molecule: Varenicline tartrate
cell viability (% relative to DMSO) (OPCs (OPC-1 derivation)): 144.02% | % Oligos (OPCs (OPC-1 derivation)): 22.86%
